According to ChEMBL document CHEMBL6127143, “From Virtual Screens to Cellular Target Engagement: New Small Molecule Ligands for the Immune Checkpoint LAG-3” (ACS Med Chem Lett, 2024):

Test system: Raji
Assay: Cytotoxicity against human Raji cells expressing human LAG3 assessed as reduction in cell viability incubated for 1 hrs by trypan blue staining based analysis
Assay type: toxicity

Compound	Activity
O=C(O)c1cccc(C(=O)NC2CCN(c3ccc(C(F)(F)F)cn3)CC2)c1	Non-Toxic
Cc1nc(C(F)(F)F)nc(-c2cc(NCCN(C)C)nc3[nH]ccc23)c1C	Non-Toxic
